Earlier results on 1 compound are cited in patent US10064816B2, “Treatment of sexual dysfunction” (ReJoy, priority 2015, dated 2018).

The data set relates to arrector pili muscle. The following applies: 1% w/v, iontophoresis.

Regarding `CNC[C@H](O)c1cccc(O)c1` [phenylephrine], the “piloerection on the forearm” value is recorded as “can activate the piloerection”.
